Measurements: PMC5125710, “Mechanistic Studies and Modeling Reveal the Origin of Differential Inhibition of Gag Polymorphic Viruses by HIV-1 Maturation Inhibitors” (PLoS Pathogens, 2016)
Values joined by “and” are separate entries in the source; they are usually repeats but may differ in a detail not shown here. Equal entries are not always repeated. Where two headings read alike, the source gives them in different places.

Tests used:
[1] = tested on: LAI pseudotyped NLRepRlucP373 Δenv; format: cell-based; details: for Inhibition of luciferase production: compound added only at the infection stage (second step); for Inhibition of luciferase activity in the infection stage: compound added at the transfection step (first step)
[2] = tested on: HIV-1 NLRepRlucP373S ΔV370; test: microbe, parasite or virus in culture; format: cell-based; details: for EC50: Human immunodeficiency virus 1; for log10 reduction in virus, multiple cycle antiviral assay, maximal inhibition: ΔV370, calculated from MC MPI
[3] = tested on: HIV-1 NLRepRlucP373S V370A; format: cell-based; details: for SC Assay MPI (%): V370A virus; for log10 reduction in virus, single cycle antiviral assay, maximal inhibition: V370A, calculated from SC MPI
[4] = target: T1, V370A HIV-1 Gag VLPs (Human immunodeficiency virus type 1 group M subtype B, UniProt P03348, V370A); test: biochemical; format: binding; design: Kd FC vs. WT: unit not given beside the values
T1 construct: constructed to encode full length HIV-1 LAI Gag; made in house; host or cells: 293T cells, transfected with pGagOpt plasmid

[5] = target: T2, WT HIV-1 Gag VLPs (Human immunodeficiency virus type 1 group M subtype B, UniProt P03348); test: SPA radiolabeled competition binding assay, WT VLPs; design: Kd FC vs. WT: unit not given beside the values
T2 construct: constructed to encode full length HIV-1 LAI Gag; made in house; host or cells: 293T cells, transfected with pGagOpt plasmid; VLPs pelleted from supernatant

[6] = tested on: HIV-1 NLRepRlucP373S Q369H; test: microbe, parasite or virus in culture; format: cell-based; details: Human immunodeficiency virus 1, MC assay
[7] = tested on: HIV-1 NLRepRlucP373S V362I; test: microbe, parasite or virus in culture; format: cell-based; details: for log10 reduction in virus, multiple cycle antiviral assay, maximal inhibition: V362I, calculated from MC MPI; for EC50: Human immunodeficiency virus 1, V362I virus
[8] = target: ΔV370 HIV-1 Gag VLPs (Human immunodeficiency virus type 1 group M subtype B, UniProt P03348, DEL370-370); test: SPA radiolabeled competition binding assay, ΔV370 VLPs; design: Kd FC vs. WT: unit not given beside the values; details: for Kd FC vs. WT: ΔV370 VLP
[9] = tested on: HIV-1 NLRepRlucP373S T371A; test: microbe, parasite or virus in culture; format: cell-based; details: Human immunodeficiency virus 1, MC assay
[10] = target: T3, CA/SP1 cleavage of WT Gag VLPs by HIV-1 protease (Human immunodeficiency virus type 1 group M subtype B, UniProt P03348); format: biochemical; details: 3 μM MI
T3 construct: constructed to encode full length HIV-1 LAI Gag; made in house; host or cells: Gag VLPs from transfected 293T cells

[11] = target: CA/SP1 cleavage of ΔV370 Gag VLPs by HIV-1 protease (Human immunodeficiency virus type 1 group M subtype B, UniProt P03348, DEL370-370); test: HIV-1 VLP protease cleavage assay (LC/MS), ΔV370 VLPs; format: biochemical; details: 3 μM MI
[12] = target: T4, V362I HIV-1 Gag VLPs (Human immunodeficiency virus type 1 group M subtype B, UniProt P03348, V362I); test: biochemical; format: binding; design: Kd FC vs. WT: unit not given beside the values
T4 construct: constructed to encode full length HIV-1 LAI Gag; made in house; host or cells: 293T cells, transfected with pGagOpt plasmid

[13] = tested on: HIV-1 NLRepRlucP373S V370A; test: microbe, parasite or virus in culture; format: cell-based; details: for log10 reduction in virus, multiple cycle antiviral assay, maximal inhibition: V370A, calculated from MC MPI; for EC50: Human immunodeficiency virus 1, V370A virus
[14] = tested on: HIV-1 NLRepRlucP373S ΔV370; format: cell-based; details: for log10 reduction in virus, single cycle antiviral assay, maximal inhibition: ΔV370, calculated from SC MPI; for SC Assay MPI (%): ΔV370 virus
[15] = tested on: HIV-1 NLRepRlucP373S (WT); format: cell-based; details: for SC Assay MPI (%): WT virus; for log10 reduction in virus, single cycle antiviral assay, maximal inhibition: WT, calculated from SC MPI
[16] = tested on: HIV-1 NLRepRlucP373S V370A/Δ371T; test: microbe, parasite or virus in culture; format: cell-based; details: for EC50: Human immunodeficiency virus 1, MC assay
[17] = tested on: HIV-1 NLRepRlucP373S ΔT371; test: microbe, parasite or virus in culture; format: cell-based; details: for EC50: Human immunodeficiency virus 1, MC assay
[18] = from mean C24 and free fraction of 0.14
[19] = tested on: HIV-1; details: cited from earlier work
[20] = tested on: HIV-1 NLRepRlucP373S (WT); test: microbe, parasite or virus in culture; format: cell-based; details: for MC Assay MPI (%): maximal percent inhibition at two highest drug concentrations
[21] = tested on: HIV-1 NLRepRlucP373S V370M; test: microbe, parasite or virus in culture; format: cell-based; details: for EC50: Human immunodeficiency virus 1, MC assay

Row | SMILES | Inhibition of luciferase production [1] | EC50 ([2]; ΔV370 virus, MC assay) [nM] | log10 reduction in virus, multiple cycle antiviral assay, maximal inhibition [2] [log10] | MC Assay MPI (%) ([2]; ΔV370 virus) | SC Assay MPI (%) [3] | log10 reduction in virus, single cycle antiviral assay, maximal inhibition [3] [log10] | Kd FC vs. WT ([4]; V370A VLP) | Kd FC vs. WT ([5]; WT VLP) | MC Assay MPI (%) ([7]; V362I virus) | log10 reduction in virus, multiple cycle antiviral assay, maximal inhibition [7] [log10] | Kd FC vs. WT [8] | EC50 [9] [nM] | Kd FC vs. WT ([12]; V362I VLP) | MC Assay MPI (%) ([13]; V370A virus) | Inhibition of luciferase activity in the infection stage [1] | SC Assay MPI (%) [15] | EC50 [16] [nM] | EC50 [17] [nM] | EC50 ([7]; MC assay) [nM] | EC50 [21] [nM] | further results
1 | COc1ccnc2[nH]cc(C(=O)C(=O)N3CCN(C(=O)c4ccccc4)C[C@H]3C)c12 [BMS-378806, 4-benzoyl-1-[(4-methoxy-1H-pyrrolo[2,3-b]pyridin-3-yl)oxoacetyl]-2-(R)-methylpiperazine] | fully active | – | – | – | – | – | – | – | – | – | – | – | – | – | – | – | – | – | – | – | –
2 | C=C(C)[C@@H]1CC[C@]2(C(=O)O)CC[C@]3(C)[C@H](CC[C@@H]4[C@@]5(C)CC[C@H](OC(=O)CC(C)(C)C(=O)O)C(C)(C)[C@@H]5CC[C@]43C)[C@@H]12 [BVM, bevirimat, reference compound] | – | > 10000 | -0.04 | 9.2+/- 6.3% and 9% and 9.2% | 19% and 19.0 +/- 3.5% | -0.08 | 9.1 | 1.0 | 81.3 +/- 2.0% and 81.3% | -0.73 | 48 | 40 | 2.9 | 65.4 +/- 3.8% and 65.4% | inhibiting luciferase production only when added in the first step | 82.3 +/- 2.7% and 82% and 82.3% | – | – | – | – | EC50 [6]: 7 nM; Inhibition of CA/SP1 cleavage ([10]; 2 hours): 39%; Inhibition of CA/SP1 cleavage ([10]; 4 hours): 1%; Inhibition of CA/SP1 cleavage ([11]; whole time course): not inhibitory at any time point; log10 reduction in virus, multiple cycle antiviral assay, maximal inhibition [13]: -0.46 log10; log10 reduction in virus, single cycle antiviral assay, maximal inhibition [14]: 0.06 log10; SC Assay MPI (%) [14]: -26% and -25.6%; log10 reduction in virus, single cycle antiviral assay, maximal inhibition [15]: -0.71 log10
3 | C=C(C)[C@@H]1CC[C@]2(NCCN3CCS(=O)(=O)CC3)CC[C@]3(C)[C@H](CC[C@@H]4[C@@]5(C)CC=C(c6ccc(C(=O)O)cc6)C(C)(C)[C@@H]5CC[C@]43C)[C@@H]12 [BMS-955176] | – | 13 | -1.09 | 91.9 +/- 4.4% and 92% and 91.9% | 76.5 +/- 3.0% and 76.5% | -0.64 | 2 | 1.0 | 93.8 +/- 1.8% and 93.8% | -1.20 | 10 | 2 | 1.3 | 98.2 +/- 1.3% and 98.2% | inhibiting luciferase production only when added in the first step | 93.0 +/- 2.5% and 93% | 6.6 | 7.3 | 4.5 | 2.8 | Kd [4]: 6.5 nM; Kd [5]: 3.2 nM; Mean free concentration [18]: 213 nM; Kd [8]: 33.6 nM; Clinical VLR, maximal median HIV-1 log10 RNA reduction ([19]; subtype B Gag polymorphs (compared to V370A, V362I), 40 mg): -1.71 log10; Clinical VLR, maximal median HIV-1 log10 RNA reduction ([19]; subtype B WT genotype, 40 mg QD, 10 day monotherapy): -1.75 log10; Clinical VLR, maximal median HIV-1 log10 RNA reduction ([19]; subtype C viruses (compared to ΔV370), 40 mg): -1.35 log10; MC Assay MPI (%) ([20]; WT virus): 100 +/- 0.4% and 100%; log10 reduction in virus, multiple cycle antiviral assay, maximal inhibition ([20]; WT, calculated from MC MPI): < -2.00 log10; Inhibition of CA/SP1 cleavage ([10]; 4 hours): sustained inhibition; Inhibition of CA/SP1 cleavage ([11]; 4 hour time point): 13%; Kd [12]: 4.3 nM; EC50 ([13]; MC assay): 2.7 nM; log10 reduction in virus, multiple cycle antiviral assay, maximal inhibition [13]: -1.73 log10; log10 reduction in virus, single cycle antiviral assay, maximal inhibition [14]: -0.27 log10; SC Assay MPI (%) [14]: 45.9%; log10 reduction in virus, single cycle antiviral assay, maximal inhibition [15]: -1.15 log10
4 | C=C(C)[C@@H]1CC[C@]2(C(=O)O)CC[C@]3(C)[C@H](CC[C@@H]4[C@@]5(C)CC=C(c6ccc(C(=O)O)cc6)C(C)(C)[C@@H]5CC[C@]43C)[C@@H]12 [BMS-1] | – | > 6000 | – | 3.7 +/- 2.9% and 3.7% | – | – | 7.0 | 1.0 | 71.4 +/- 5.4% and 71.4% | – | – | 28 | 1.9 | – | – | – | > 10000 | 292 | 213 | > 4000 | Kd ([4]; V370A VLP, competition displacement of [3H]-BMS-977660, read-out: Kd): 177 nM; Kd ([5]; WT VLP, competition displacement of [3H]-BMS-977660, read-out: Kd): 25.4 nM; Kd ([12]; V362I VLP, competition displacement of [3H]-BMS-977660, read-out: Kd): 49 nM
5 | Cc1c(O)cccc1C(=O)N[C@@H](CSc1ccccc1)[C@H](O)CN1C[C@H]2CCCC[C@H]2C[C@H]1C(=O)NC(C)(C)C [NFV, nelfinavir, reference compound] | luciferase production is not inhibited | 5.2 | – | – | 99.0% | – | – | – | 100% | – | – | – | – | 99.9% | luciferase activity is inhibited | 99.3% | 5.7 | 2 | 4.3 | 4.5 | FC = EC50 (SDM)/EC50 (WT) ([2]; ΔV370 virus, MC assay): 1.2; FC = EC50 (SDM)/EC50 (WT) ([16]; MC assay): 1.3; FC = EC50 (SDM)/EC50 (WT) ([17]; ΔT371 virus, MC assay): 0.5; FC = EC50 (SDM)/EC50 (WT) ([7]; V362I virus, MC assay): 1.0; EC50 ([20]; Human immunodeficiency virus 1, WT virus, MC assay): 4.3 nM; FC = EC50 (SDM)/EC50 (WT) ([20]; WT virus, MC assay): 1.0; MC Assay MPI (%) ([20]; WT virus): 100%; FC = EC50 (SDM)/EC50 (WT) ([21]; V370M virus, MC assay): 1.0; EC50 ([13]; MC assay): 4.1 nM; FC = EC50 (SDM)/EC50 (WT) ([13]; V370A virus, MC assay): 1.0
